Patent publication US7799775B2, “Pyrimidine derivatives” (ASKA Pharmaceutical Co., Ltd., priority 2004, dated 2010)

What was measured:
human 5-HT3 receptor = molecular target: T1, human 5-HT3 receptor (Homo sapiens, UniProt P46098); assay: Measurement of affinity to human 5-HT3 receptor (in vitro), [3H]BRL-43694 binding; conditions: test compound 100 nmols/L; [3H]BRL-43694 0.5 nmols/L; HEK-293 cell membrane expressing human 5-HT3 receptor; read-out: Percent Inhibition (%) on Each Receptor's Binding at 10^−7M, 5-HT3
T1 construct: purchased BIOLINKS K.K; host or cells: HEK-293 cells (membrane preparation)
T1 sequence (P46098 24-478): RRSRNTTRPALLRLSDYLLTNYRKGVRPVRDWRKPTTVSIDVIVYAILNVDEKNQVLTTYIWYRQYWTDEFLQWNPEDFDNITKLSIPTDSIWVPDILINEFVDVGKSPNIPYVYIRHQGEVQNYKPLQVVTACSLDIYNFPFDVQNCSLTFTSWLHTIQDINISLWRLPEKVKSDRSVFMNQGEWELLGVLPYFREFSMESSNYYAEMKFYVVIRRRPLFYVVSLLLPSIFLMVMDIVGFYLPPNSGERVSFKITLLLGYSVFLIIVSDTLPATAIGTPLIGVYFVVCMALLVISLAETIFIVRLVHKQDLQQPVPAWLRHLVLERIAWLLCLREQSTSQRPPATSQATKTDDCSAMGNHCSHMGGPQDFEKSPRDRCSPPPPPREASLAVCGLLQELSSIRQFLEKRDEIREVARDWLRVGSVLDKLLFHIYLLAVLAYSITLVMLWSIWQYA
Method: (2) Measurement of Affinity of Each Test Compound to Human 5-HT3 Receptor (in Vitro):
HEK-293 cell membrane sample in which human 5-HT3 receptor was expressed (purchased from BIOLINKS K.K.) 0.05 mL (about 50 microassay) was added to 24.95 mL of incubation buffer solution B (an aqueous solution of a mixture of 50 mmols/L of Tris-hydrochloric acid, 5 mmols/L of magnesium chloride and 1 mmol/L of EDTA, whose pH was adjusted to 7.5 at 25° C. with 1N-aqueous sodium hydroxide solution) and homogenized, to provide a membrane sample suspension B. Separately, each test compound was made into 270 μmols/L of DMSO solution and diluted to a prescribed concentration with the incubation buffer solution B to provide a compound solution.
A piece of polypropylene tube was charged with 20 μL of [^3H]BRL-43694 (purchased from Daiichi Pure Chemicals Co., Ltd.) (The concentration of [^3H]BRL-43694 had been advancedly adjusted to render its concentration in the reaction mixture to 0.5 nmols/L.) and 20 μL of one of the compound solutions. Further 500 μL of the membrane sample suspension B was added into the tube, followed by 60 minutes' incubation at 25° C. The reaction was terminated by rapid filtration of the reaction mixture through GF/B filter which had been advancedly immersed in a solution formed by adding to the incubation buffer solution B polyethyleneimine to a concentration of 0.5%, using Brandel cell harvester. Then the filter was washed with about 5 mL of 50 mmols/L of Tris-hydrochloric acid which had been cooled to 4° C. The filter was once again washed after similar operation.
(§1) Residual radioactivity on the filter was measured with liquid scintillation counter (ALOKA CO., LTD. LSC-5100). Percent inhibition (%) of each test compound to binding of [^3H]BRL-43694 to 5-HT3 receptor at a concentration of 0.5 nmols/L, i.e., affinity of each test compound to 5-HT3 receptor, can be calculated according to the following expression. The ratio of non-specific binding was calculated by measuring the radioactivity in case of using tropisetron: (ICS 205-930) at a concentration of 10 μmols/L, with which value the measured value of each test compound was compensated.
(§2) Affinity of each test compound to 5-HT1A receptor and 5-HT3 receptor at a concentration of 100 nmols/L were as shown in the following Tables A-1 and A-2. BRL-43694 and tropisetron (ICS 205-930), which were used in measuring affinity of those compounds to 5-HT3 receptor, have the following structures: […]

human 5-HT1A receptor = molecular target: T2, human 5-HT1A receptor (Homo sapiens, UniProt P08908); assay: Affinity measurement of the compounds to human 5-HT1A receptor (in vitro), [3H]8-OH-DPAT binding; conditions: test compound 100 nmols/L; [3H]8-OH-DPAT 0.25 nmols/L; CHO cell membrane expressing human 5-HT1A receptor; read-out: Percent Inhibition (%) on Each Receptor's Binding at 10^−7M, 5-HT1A
T2 construct: purchased Packard Bioscience; host or cells: CHO cells (membrane preparation)
T2 sequence (P08908 1-422): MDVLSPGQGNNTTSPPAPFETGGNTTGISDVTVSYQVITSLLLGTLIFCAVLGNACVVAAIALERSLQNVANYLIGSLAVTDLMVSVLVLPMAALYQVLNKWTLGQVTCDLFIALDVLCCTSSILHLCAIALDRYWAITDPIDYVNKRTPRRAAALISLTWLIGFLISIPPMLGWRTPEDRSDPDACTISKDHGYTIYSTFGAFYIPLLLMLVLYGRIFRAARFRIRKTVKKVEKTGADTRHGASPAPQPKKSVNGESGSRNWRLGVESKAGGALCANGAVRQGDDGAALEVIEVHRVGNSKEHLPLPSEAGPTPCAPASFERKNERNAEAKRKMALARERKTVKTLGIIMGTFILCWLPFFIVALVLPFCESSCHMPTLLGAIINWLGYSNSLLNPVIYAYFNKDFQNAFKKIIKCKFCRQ
Method: (1) Affinity Measurement of the Compounds to Human 5-HT1A Receptor (in Vitro)
CHO cell membrane sample in which human 5-HT1A receptor was expressed (purchased from Packard Bioscience) 0.25 mL (about 50 units) was added to 24.75 mL of incubation buffer solution A (an aqueous solution of a mixture of 50 mmols/L of Tris-hydrochloric acid, 10 mmols/L of magnesium sulfate, 0.5 mmols/L of EDTA and 0.1% ascorbic acid, whose pH was adjusted to 7.4 at 27° C. with 1N-aqueous sodium hydroxide solution), and labeled as membrane sample suspension A. Separately, each test compound was made into 270 μmols/L DMSO solution and diluted to a prescribed concentration with the incubation buffer solution A, to provide a compound solution.
A piece of polypropylene tube was charged with 20 μL of [^3H]8-OH-DPAT (8-hydroxy-2-(di-n-propylamino)tetralin; purchased from Daiichi Pure Chemicals Co., Ltd.) (The concentration of the [^3H]8-OH-DPAT had been advancedly adjusted to render its concentration in the reaction mixture to 0.25 nmols/L) and 20 μL of one of the compound solutions. Further 500 μL of the membrane sample suspension A was added into the tube, followed by 60 minutes' incubation at 27° C. The reaction was terminated by rapid filtration of the reaction mixture through GF/C filter which had been advancedly immersed in a solution formed by adding to the incubation buffer solution A polyethyleneimine to a concentration of 0.3%, using Brandel cell harvester. Then the filter was washed with about 5 mL of 50 mmols/L of Tris-hydrochloric acid which had been cooled to 4° C. The filter was once again washed after similar operation.
as §1, with “(Aloka Co.,” for “(ALOKA CO., LTD.”, “[^3H]8-OH-DPAT” for “[^3H]BRL-43694”, “5-HT1A” for “5-HT3”, “0.25” for “0.5”, “8-OH-DPAT” for “tropisetron: (ICS 205-930)”
as §2

Row | SMILES | inhibition at 0.1 µM (human 5-HT3 receptor) [%] | inhibition at 0.1 µM (human 5-HT1A receptor) [%]
1 | O[C@@H]1C[C@H]2CN(c3nccc4ccoc34)CCN2C1 [Production Example 111, 7-((7R,8aS)-7-hydroxyoctahydropyrrolo[1,2-a]pyrazin-2-yl)furo[2,3-c]-pyridine] | 95.5 | 48
2 | Cc1cc2c(N3CCN4CCC[C@@H]4C3)nccc2o1 [Production Example 115, 4-((8aR)-octahydropyrrolo[1,2-a]pyrazin-2-yl)-2-methylfuro[3,2-c]pyridine] | 74.3 | 82
3 | COc1ccc2ccnc(N3CCN(C)CC3)c2c1 [Production Example 32, 7-methoxy-1-(4-methylpiperazin-1-yl)isoquinoline] | 94.4 | 91.7
4 | Brc1ccc2ccnc(N3CCNCC3)c2c1 [Production Example 30, 7-bromo-1-piperazin-1-ylisoquinoline] | 93.4 | 92.8
5 | c1cc2occc2c(N2CCN3CCC[C@@H]3C2)n1 [Production Example 113, 4-((8aR)-octahydropyrrolo[1,2-a]pyrazin-2-yl)furo[3,2-c]pyridine] | 82.4 | 56.4
6 | CN1CCN(c2nccc3sc(Br)cc23)CC1 [Production Example 10, 2-bromo-4-(methylpiperazin-1-yl)thieno[3,2-c]pyridine] | 73.8 | 98.5
7 | c1cc2occc2c(N2CCN3CCCCC3C2)n1 (stereo not shown) [Production Example 119, 4-octahydropyrido[1,2-a]pyrazin-2-ylfuro[3,2-c]pyridine] | 71.9 | 33.7
8 | CSc1ccc2ccnc(N3CCN4CCC[C@H]4C3)c2c1 [Production Example 82] | 90.3 | 99.3
9 | CCN1CCN(c2nccc3ccccc23)CC1 [Production Example 37, 1-(4-ethylpiperazin-1-yl)isoquinoline] | 70.2 | 57.3

The next lines start with the values.

Row | inhibition at 0.1 µM (human 5-HT3 receptor) [%] | inhibition at 0.1 µM (human 5-HT1A receptor) [%] | SMILES
10 | 32 | 91 | Cn1c(CCCCN2CCN(c3nc4ccccc4s3)CC2)nc2c(c1=O)CCCC2 [Example 7-9, 2-[4-(4-benzothiazol-2-ylpiperazin-1-yl)butyl]-3-methyl-5,6,7,8-tetrahydro-3H-quinazolin-4-one]
11 | 95 | 97.4 | CCn1c(CCCCN2CCN(c3ccc4ccccc4n3)CC2)nc2ccccc2c1=O [Example 7-21, 3-2-[4-(4-quinolin-2-ylpiperazin-1-yl)butyl]-3H-quinazolin-4-one]
12 | 79.6 | 95.7 | NN1Oc2c(sc3c2CCCCCC3)N=C1SCCCN1CCN(c2ccc3ccccc3n2)CC1 [Example 1-24, 3-amino-2-[3-(4-quinolin-2-ylpiperazin-1-yl)propylthio]-3,4,5,6,7,8,9,10-octahydro-4-oxa-11-thia-1,3-diaza-11H-cycloocta[a]-indene]
13 | 74.8 | 77 | Cc1sc2nc(CCCCN3CCN(c4ccc5ccccc5n4)CC3)n(C)c(=O)c2c1C [Example 7-23, 3,5,6-trimethyl-2-[4-(4-quinolin-2-ylpiperazin-1-yl)butyl]-3H-thieno[2,3-d]pyrimidin-4-one]
14 | 91.5 | 96.9 | CC1CCc2nc(CCCCN3CCN(c4ccc5ccccc5n4)CC3)n(N)c(=O)c2C1 (stereo not shown) [Example 4-60, 3-amino-6-methyl-2-[4-(4-quinolin-2-ylpiperazin-1-yl)butyl]-5,6,7,8-tetrahydro-3H-quinazolin-4-one]
15 | 93.6 | 80.8 | Cn1c(NCCCN2CCN(c3ccc4ccccc4n3)CC2)nc2c(c1=O)CCCC2 [Example 7-29, 3-methyl-2-[3-(4-quinolin-2-ylpiperazin-1-yl)propylamino]-5,6,7,8-tetrahydro-3H-quinazolin-4-one]
16 | 85.5 | 54.5 | O=c1[nH]c(NCCCN2CCN(c3nc4ccccc4n4cccc34)CC2)nc2ccccc12 [Example 5-8, 2-[3-(4-pyrrolo[1,2-a]quinoxalin-4-ylpiperazin-1-yl)propylamino]-3H-quinazolin-4-one]
17 | 93.6 | 90.2 | CCn1c(CCCCN2CCN(c3ccc4ccccc4n3)CC2)nc2c(c1=O)CC(C)CC2 (stereo not shown) [Example 7-13, 3-ethyl-6-methyl-2-[4-(4-quinolin-2-ylpiperazin-1-yl)butyl]-5,6,7,8-tetrahydro-3H-quinazolin-4-one]
18 | 83.5 | 92.1 | CN1CCN(c2nccc3ccc(N(C)C)cc23)CC1 [Production Example 89, 7-dimethylamino-1-(4-methylpiperazin-1-yl)isoquinoline]
19 | 94.8 | 74 | O=c1[nH]c(NCCCN2CCN(c3ccc4ccccc4n3)CC2)nc2c1CCCC2 [Example 5-1, 2-[3-(4-quinolin-2-ylpiperazin-1-yl)propylamino]-5,6,7,8-tetrahydro-3H-quinazolin-4-one]
20 | 96.9 | 98 | Cc1sc2nc(CCCCN3CCN(c4ccc5ccccc5n4)CC3)n(N)c(=O)c2c1C [Example 4-35, 3-amino-5,6-dimethyl-2-[4-(4-quinolin-2-ylpiperazin-1-yl)butyl]-3H-thieno[2,3-d]pyrimidin-4-one]
